Data from US20250242032A1, “AGGREGATE FORMED BY MEANS OF ASSEMBLING CHALCOGEN HETEROCYCLIC COMPOUND AND INSULIN, AND PREPARATION METHOD THEREFOR, AND INSULIN ORAL PREPARATION” (FUZHOU UNIVERSITY, priority 2021, published 2025).

What was measured:
Caco-2 cells = assay: Trans-epithelial electrical resistance (TEER), integrity of epithelial cell layer; assay type: cell-based, human; settings: Caco-2 monolayer, monitored for 12 hours
Method: Transcellular transport of the aggregate of insulin and chalcogen heterocyclic compound in intestinal model in vitro and integrity of epithelial cell layer
(1) Caco-2 cells were plated in a 24-well Transwell chamber and cultured for 21 days. […] (2) The aggregate was added to the upper Transwell chamber at 20 μg/mL, the concentration of insulin in the liquid in the lower Transwell chamber was detected every 1 hour, and the TEER was monitored continuously for 12 hours.

diabetic model mice [1] = assay: Blood glucose of diabetic model mice after oral administration of aggregate suspension; assay type: in vivo, C57BL/6J mice
Method: Change in blood glucose level of diabetic model mice after administered orally with the aggregate of insulin and chalcogen heterocyclic compound (1) Streptozotocin (STZ) was intraperitoneally injected into 6-8 week-old C57BL/6J mice for five consecutive days to induce pancreatic islet B-cell damage. On the 17th day after the first injection, the blood glucose concentration of the mice was measured, and the diabetic mouse model was considered to be successfully established when the blood glucose concentration was higher than 300 mg/dL. (2) After the diabetic model mice were orally administered with a suspension of the above aggregate at an amount of insulin of 80 U/kg, blood was collected from the tail vein of the mice at different time points to monitor the change in blood glucose. In control experiment 1, an equal amount of free insulin was administered orally to the diabetic model mice. In control experiment 2, an equal volume of physiological saline was administered orally to the diabetic model mice. In control experiment 3, insulin was injected subcutaneously to the diabetic model mice at 5 U/kg. Change in blood glucose level in diabetic model mice after administration of a suspension of the aggregate of insulin and chalcogen heterocyclic compound: The diabetic model mice were orally administered with a suspension of the aggregate 2 obtained above at an amount of insulin of 50 U/kg, and then the blood was collected from the tail vein of the mice at different time points to monitor the change in blood glucose concentration. In control experiment 1, an equal volume of physiological saline was administered orally to the diabetic model mice, and in control experiment 2, insulin was injected subcutaneously to the diabetic model mice at 5 U/kg. Change in blood glucose level in diabetic model mice after administration of a suspension of the aggregate of insulin and chalcogen heterocyclic compound: The diabetic model mice were orally administered with a suspension of the above aggregate 3 at an amount of insulin of 50 U/kg. […]

diabetic model mice [2] = assay: Blood glucose of diabetic model mice after oral administration of enteric-coated capsule loading lyophilized aggregate; assay type: in vivo, C57BL/6J mice
Method: (1) Streptozotocin (STZ) was intraperitoneally injected into 6-8 week-old C57BL/6J mice for five consecutive days to induce pancreatic islet B-cell damage. On the 17th day after the first injection, the blood glucose concentration of the mice was measured, and the diabetic mouse model was considered to be successfully established when the blood glucose concentration was higher than 300 mg/dL. (2) After the diabetic model mice were orally administered with a suspension of the above aggregate at an amount of insulin of 80 U/kg, blood was collected from the tail vein of the mice at different time points to monitor the change in blood glucose. In control experiment 1, an equal amount of free insulin was administered orally to the diabetic model mice. In control experiment 2, an equal volume of physiological saline was administered orally to the diabetic model mice. In control experiment 3, insulin was injected subcutaneously to the diabetic model mice at 5 U/kg. Change in blood glucose level of diabetic model mice after orally administered with an enteric-coated capsule loading the aggregate of insulin and chalcogen heterocyclic compound (1) The aggregate was prepared into a lyophilized powder and loaded in an enteric-coated capsule. In control experiment 1, an equal amount of free insulin was loaded in an enteric-coated capsule. (2) A diabetic mice model was established according to the method as above. The mice were administered with recombinant insulin at an amount of 20 U/kg, after which the blood was taken from the tail vein of the mice at different time points to monitor the change in blood glucose concentration. In control experiment 2, insulin was injected subcutaneously to the diabetic model mice at 5 U/kg.

diabetic model pigs = assay: Blood glucose of diabetic model pigs after oral administration of enteric-coated capsule loading lyophilized aggregate; assay type: in vivo, Bama mini-pigs; settings: oral enteric-coated capsule loading free insulin, 20 U/kg
Method: Change in blood glucose level of diabetic model pigs after orally administered with an enteric-coated capsule loading the aggregate of insulin and chalcogen heterocyclic compound (1) Streptozotocin (STZ, with a concentration of 75 mg/mL) was infused intravenously to 4-month-old Bama mini-pigs at 150 mg/kg to induce pancreatic islet B-cell damage. On the 7th day after the first infusion, the blood glucose concentration of the pigs was measured, and the diabetic pig model was considered to be successfully established when the blood glucose concentration was higher than 300 mg/dL. (2) The aggregate was prepared into a lyophilized powder and loaded in an enteric-coated capsule. In control experiment 1, an equal amount of free insulin was loaded in an enteric-coated capsule. (3) The diabetic model pigs were administered with recombinant insulin at an amount of 20 U/kg, after which the blood was taken from the jugular vein of the pigs at different time points to monitor the change in blood glucose concentration. (4) The diabetic model pigs were given normal food at the 3rd and 8th hour after administration, and the food bowl was removed after 15 minutes.

[3] = subcutaneous injection 5 U/kg, 15 minutes after injection
[4] = subcutaneous injection 5 U/kg, within 15-180 minutes

Molecule	change in TEER (Caco-2 cells)	reduction in blood glucose concentration (diabetic model mice [1]; oral, equal amount of free insulin (80 U/kg))	reduction in blood glucose concentration (diabetic model mice [1]; [3])	reduction of blood glucose concentration (diabetic model mice [1]; [4])	reduction in blood glucose concentration (diabetic model mice [2]; oral enteric-coated capsule loading free insulin, 20 U/kg)	reduction in blood glucose (diabetic model mice [2]; [3])	reduction of blood glucose concentration (diabetic model mice [2]; [4])	reduction in blood glucose concentration (diabetic model pigs)
CCCCCCCCCC(=O)[O-].[Na+] [sodium caprate]	drastically reduced							
free insulin: human recombinant insulin, used unencapsulated as oral control or subcutaneous injection control		little reduction	significant reduction	30-50%	little reduction	significant reduction	30-50%	little reduction
